Reference: patent publication US6936585B2, “Corticotropin releasing factor 2 receptor agonists” (priority 2002, dated 2005)
Ends that are not written are not given here. Peptide text beside a SMILES is read from it.

What was measured:
CRF2R = molecular target: T1, CRF2R (Homo sapiens, UniProt Q13324); assay: CRF2R agonist activation (EC50 / Emax), called comparative CRF binding; type: cell-based; conditions: for Emax: read-out: CRF2R Emax
T1 sequence (Q13324 1-411): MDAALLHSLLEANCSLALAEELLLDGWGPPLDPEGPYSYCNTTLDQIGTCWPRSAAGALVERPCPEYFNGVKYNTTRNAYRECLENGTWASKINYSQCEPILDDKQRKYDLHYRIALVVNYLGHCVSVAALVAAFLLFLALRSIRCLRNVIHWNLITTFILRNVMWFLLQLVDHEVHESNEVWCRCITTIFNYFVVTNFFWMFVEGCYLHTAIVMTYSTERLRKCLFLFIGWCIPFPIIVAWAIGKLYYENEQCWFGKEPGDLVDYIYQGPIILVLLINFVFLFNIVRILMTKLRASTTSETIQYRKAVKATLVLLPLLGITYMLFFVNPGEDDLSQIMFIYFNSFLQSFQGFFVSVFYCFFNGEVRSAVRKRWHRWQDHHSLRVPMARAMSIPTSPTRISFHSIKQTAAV
Procedure, shortened: (§1)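 Agonism is scored from cAMP rise, assayed in lysates or through CRE-driven reporter expression, after peptide contact with cells bearing human CRF2R or CRF1R, compared against vehicle-treated cells.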

CRF1R = molecular target: T2, CRF1R (Homo sapiens, UniProt P34998); assay: CRF1R agonist activation (EC50 / Emax), called comparative CRF binding; type: cell-based; conditions: for Emax: read-out: CRF1R Emax
T2 sequence (P34998 24-415): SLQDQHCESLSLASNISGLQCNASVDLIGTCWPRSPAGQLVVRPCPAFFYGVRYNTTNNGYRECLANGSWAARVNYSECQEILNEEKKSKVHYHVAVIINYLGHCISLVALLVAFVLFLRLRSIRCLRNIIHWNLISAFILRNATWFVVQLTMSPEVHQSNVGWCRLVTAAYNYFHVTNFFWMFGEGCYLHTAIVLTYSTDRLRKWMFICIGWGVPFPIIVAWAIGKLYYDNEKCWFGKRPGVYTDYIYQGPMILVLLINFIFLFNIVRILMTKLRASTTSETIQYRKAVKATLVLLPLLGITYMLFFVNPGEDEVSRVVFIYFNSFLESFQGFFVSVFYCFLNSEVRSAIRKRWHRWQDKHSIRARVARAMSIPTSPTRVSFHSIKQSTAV
Procedure, shortened: as §1

| Compound | Emax (CRF2R) | Emax (CRF1R) | EC50 (CRF2R; read-out: CRF2R EC50) | EC50 (CRF1R; read-out: CRF1R EC50) |
| --- | --- | --- | --- | --- |
| CC[C@H](C)[C@H](NC(=O)[C@H](C)NC(=O)[C@H](CC(N)=O)NC(=O)[C@H](CCC(N)=O)NC(=O)[C@H](CCC(=O)O)NC(=O)[C@H](C)NC(=O)[C@H](CCCNC(=N)N)NC(=O)[C@H](CCC(=O)O)NC(=O)[C@H](CCCNC(=N)N)NC(=O)[C@H](CCC(N)=O)NC(=O)[C@H](CO)NC(=O)[C@H](CCC(N)=O)NC(=O)[C@@H](NC(=O)[C@H](CCCNC(=N)N)NC(=O)[C@H](C)NC(=O)[C@H](CC(C)C)NC(=O)[C@H](CCC(=O)O)NC(=O)[C@H](CC(C)C)NC(=O)[C@H](CC(C)C)NC(=O)[C@@H](NC(=O)[C@H](CCCNC(=N)N)NC(=O)[C@H](CC(C)C)NC(=O)[C@H](CC(C)C)NC(=O)[C@H](Cc1ccc(O)cc1)NC(=O)[C@H](CCC(N)=O)NC(=O)[C@@H]1CCCN1C(=O)[C@H](CC(C)C)NC(=O)[C@H](CC(=O)O)NC(=O)[C@@H](NC(=O)[C@H](CO)NC(=O)[C@H](CC(C)C)NC(=O)[C@H](CO)NC(=O)[C@@H]1CCCN1C(=O)[C@H](CC(N)=O)NC(=O)[C@@H](N)CC(=O)O)[C@@H](C)CC)[C@@H](C)O)[C@@H](C)O)C(=O)N[C@H](C(=O)N[C@@H](Cc1ccccc1)C(=O)N[C@@H](C)C(=O)N[C@@H](CO)C(=O)N[C@H](C(N)=O)C(C)C)[C@@H](C)CC [compound 339] (H-DNPSLSIDLPQYLLRTLLELARTQSQRERAEQNAIIFASV-NH2) | 47.9% | 13.2% |  |  |
| SQEPPISLDLPTELLREVLEMTKADQLAQQAHSNRKIIDIA-NH2 [compound 92] | 15.8% | 4.6% |  |  |
| CC[C@H](C)[C@H](N)C(=O)N[C@H](C(=O)N[C@@H](CC(C)C)C(=O)N[C@@H](CO)C(=O)N[C@@H](CC(C)C)C(=O)N[C@@H](CC(=O)O)C(=O)N[C@H](C(=O)N1CCC[C@H]1C(=O)N[C@H](C(=O)NCC(=O)N[C@@H](CC(C)C)C(=O)N[C@@H](CC(C)C)C(=O)N[C@@H](CCC(N)=O)C(=O)N[C@H](C(=O)N[C@@H](CC(C)C)C(=O)N[C@@H](CC(C)C)C(=O)N[C@@H](CCC(=O)O)C(=O)N[C@@H](CCC(N)=O)C(=O)N[C@@H](C)C(=O)N[C@@H](CCCCN)C(=O)N[C@@H](C)C(=O)N[C@@H](CCCNC(=N)N)C(=O)N[C@@H](C)C(=O)N[C@@H](C)C(=O)N[C@@H](CCCNC(=N)N)C(=O)N[C@@H](CCC(=O)O)C(=O)N[C@@H](CCC(N)=O)C(=O)N[C@@H](C)C(=O)N[C@H](C(=O)N[C@H](C(=O)N[C@@H](CC(N)=O)C(=O)N[C@@H](C)C(=O)N[C@@H](CCCNC(=N)N)C(=O)N[C@H](C(=O)N[C@@H](CC(C)C)C(=O)N[C@@H](C)C(=O)N[C@@H](CCCNC(=N)N)C(=O)N[C@H](C(N)=O)C(C)C)[C@@H](C)CC)[C@@H](C)O)[C@@H](C)O)[C@@H](C)CC)[C@@H](C)CC)C(C)C)C(C)C [compound 109] (H-IVLSLDVPIGLLQILLEQAKARAAREQATTNARILARV-NH2; N-terminus assumed) | 91.7% | 6.7% |  |  |
| CC[C@H](C)[C@H](N)C(=O)N[C@H](C(=O)N[C@@H](CC(C)C)C(=O)N[C@@H](CO)C(=O)N[C@@H](CC(C)C)C(=O)N[C@@H](CC(=O)O)C(=O)N[C@H](C(=O)N1CCC[C@H]1C(=O)N[C@H](C(=O)NCC(=O)N[C@@H](CC(C)C)C(=O)N[C@@H](CC(C)C)C(=O)N[C@@H](CCC(N)=O)C(=O)N[C@H](C(=O)N[C@@H](CC(C)C)C(=O)N[C@@H](CC(C)C)C(=O)N[C@@H](CCC(=O)O)C(=O)N[C@@H](CCC(N)=O)C(=O)N[C@H](C(=O)N[C@@H](CCCCN)C(=O)N[C@@H](C)C(=O)N[C@@H](CC(=O)O)C(=O)N[C@@H](C)C(=O)N[C@@H](C)C(=O)N[C@@H](CCCNC(=N)N)C(=O)N[C@@H](CCC(=O)O)C(=O)N[C@@H](CCC(N)=O)C(=O)N[C@@H](C)C(=O)N[C@H](C(=O)N[C@H](C(=O)N[C@@H](CC(N)=O)C(=O)N[C@@H](C)C(=O)N[C@@H](CCCNC(=N)N)C(=O)N[C@H](C(=O)N[C@@H](CC(C)C)C(=O)N[C@@H](C)C(=O)N[C@@H](CCCNC(=N)N)C(=O)N[C@H](C(N)=O)C(C)C)[C@@H](C)CC)[C@@H](C)O)[C@@H](C)O)[C@@H](C)O)[C@@H](C)CC)[C@@H](C)CC)C(C)C)C(C)C [compound 108] (H-IVLSLDVPIGLLQILLEQTKADAAREQATTNARILARV-NH2; N-terminus assumed) | 97% | 3% |  |  |
| CC[C@H](C)[C@H](N)C(=O)N[C@H](C(=O)N[C@@H](CC(C)C)C(=O)N[C@@H](CO)C(=O)N[C@@H](CC(C)C)C(=O)N[C@@H](CC(=O)O)C(=O)N[C@H](C(=O)N1CCC[C@H]1C(=O)N[C@H](C(=O)NCC(=O)N[C@@H](CC(C)C)C(=O)N[C@@H](CC(C)C)C(=O)N[C@@H](CCC(N)=O)C(=O)N[C@H](C(=O)N[C@@H](CC(C)C)C(=O)N[C@@H](CC(C)C)C(=O)N[C@@H](CCC(=O)O)C(=O)N[C@@H](CCC(N)=O)C(=O)N[C@@H](C)C(=O)N[C@@H](CCCNC(=N)N)C(=O)N[C@@H](C)C(=O)N[C@@H](CCCNC(=N)N)C(=O)N[C@@H](C)C(=O)N[C@@H](C)C(=O)N[C@@H](CCCNC(=N)N)C(=O)N[C@@H](CCC(=O)O)C(=O)N[C@@H](CCC(N)=O)C(=O)N[C@@H](C)C(=O)N[C@H](C(=O)N[C@@H](CO)C(=O)N[C@@H](CC(N)=O)C(=O)N[C@@H](CCCNC(=N)N)C(=O)N[C@@H](CCCCN)C(=O)N[C@@H](CC(C)C)C(=O)N[C@@H](CCSC)C(=O)N[C@@H](CCC(=O)O)C(=O)N[C@H](C(=O)N[C@H](C(N)=O)[C@@H](C)CC)[C@@H](C)CC)[C@@H](C)O)[C@@H](C)CC)[C@@H](C)CC)C(C)C)C(C)C [compound 163] (H-IVLSLDVPIGLLQILLEQARARAAREQATSNRKLMEII-NH2; N-terminus assumed) | 96% | 13% | 4.49 nM | > 100 nM |
| SQEPPISLDLTFGLLREVLEMTKADQLAQQAHSNRKLLDIA-NH2 [compound 88] | 12.6% | 11.2% |  |  |
| CC[C@H](C)[C@H](N)C(=O)N[C@H](C(=O)N[C@@H](CC(C)C)C(=O)N[C@@H](CO)C(=O)N[C@@H](CC(C)C)C(=O)N[C@@H](CC(=O)O)C(=O)N[C@H](C(=O)N1CCC[C@H]1C(=O)N[C@H](C(=O)NCC(=O)N[C@@H](CC(C)C)C(=O)N[C@@H](CC(C)C)C(=O)N[C@@H](CCC(N)=O)C(=O)N[C@H](C(=O)N[C@@H](CC(C)C)C(=O)N[C@H](C(=O)N[C@@H](CCC(=O)O)C(=O)N[C@H](C(=O)N[C@@H](CCC(=O)O)C(=O)N[C@@H](CCCCN)C(=O)N[C@@H](CCC(N)=O)C(=O)N[C@@H](CCC(=O)O)C(=O)N[C@@H](CCCCN)C(=O)N[C@@H](CCC(=O)O)C(=O)N[C@@H](CCCCN)C(=O)N[C@@H](CCC(N)=O)C(=O)N[C@@H](CCC(N)=O)C(=O)N[C@@H](C)C(=O)N[C@@H](C)C(=O)N[C@@H](CC(N)=O)C(=O)N[C@@H](CC(N)=O)C(=O)N[C@@H](CCCNC(=N)N)C(=O)N[C@@H](CC(C)C)C(=O)N[C@@H](CC(C)C)C(=O)N[C@@H](CC(C)C)C(=O)N[C@@H](CC(=O)O)C(=O)N[C@H](C(=O)N[C@H](C(N)=O)[C@@H](C)CC)[C@@H](C)O)[C@@H](C)CC)[C@@H](C)CC)[C@@H](C)CC)[C@@H](C)CC)C(C)C)C(C)C [compound 154] (H-IVLSLDVPIGLLQILIEIEKQEKEKQQAANNRLLLDTI-NH2; N-terminus assumed) | 100% | 7% |  |  |
| CC[C@H](C)[C@H](NC(=O)[C@H](C)NC(=O)[C@H](CC(N)=O)NC(=O)[C@H](CCC(N)=O)NC(=O)[C@H](CCC(=O)O)NC(=O)[C@H](C)NC(=O)[C@H](CCCNC(=N)N)NC(=O)[C@H](CCC(=O)O)NC(=O)[C@H](CCCNC(=N)N)NC(=O)[C@H](CCC(N)=O)NC(=O)[C@H](CO)NC(=O)[C@H](CCC(N)=O)NC(=O)[C@@H](NC(=O)[C@H](CCCNC(=N)N)NC(=O)[C@H](C)NC(=O)[C@H](CC(C)C)NC(=O)[C@H](CCC(=O)O)NC(=O)[C@H](CC(C)C)NC(=O)[C@H](CC(C)C)NC(=O)[C@@H](NC(=O)[C@H](CCCNC(=N)N)NC(=O)[C@H](CC(C)C)NC(=O)[C@H](CC(C)C)NC(=O)[C@H](Cc1ccc(O)cc1)NC(=O)[C@H](Cc1ccc(O)cc1)NC(=O)[C@@H]1CCCN1C(=O)[C@H](CC(C)C)NC(=O)[C@H](CC(=O)O)NC(=O)[C@@H](NC(=O)[C@H](CO)NC(=O)[C@H](CC(C)C)NC(=O)[C@H](CO)NC(=O)[C@@H]1CCCN1C(=O)[C@H](CC(N)=O)NC(=O)[C@@H](N)CC(=O)O)[C@@H](C)CC)[C@@H](C)O)[C@@H](C)O)C(=O)N[C@H](C(=O)N[C@@H](Cc1ccccc1)C(=O)N[C@@H](C)C(=O)N[C@@H](CO)C(=O)N[C@H](C(N)=O)C(C)C)[C@@H](C)CC [compound 263] (H-DNPSLSIDLPYYLLRTLLELARTQSQRERAEQNAIIFASV-NH2; N-terminus assumed) | 93% | 72% |  |  |
